The target of one assay is T1, MC-4 receptor (Homo sapiens, UniProt P32245).
T1 construct: expressed in transfected cells; host or cells: 293 cells (293MC4, obtained from Dr. Wei Gu, Millenium)
As to the kind of experiment: Agonist assay: cAMP response in 293 cells transfected with MC-4 receptor (Biotrak-cAMP SPA). The format is cell-based. As to conditions: cAMP increase, read-out: EC50 for MC4-R agonist activity. The protocol:
Description: 293 cells transfected with either the MC-4 receptor or MC-1 receptor were grown in 96 well plates. The cells were stimulated with either 100 nM NDP-αMSH or screening compounds. Cyclic AMP was extracted from the cells and concentrations were determined using a Biotrak-cAMP SPA assay. Agonists were identified as those compounds causing an increase in cAMP. […] Wei Gu, Millenium) were cultured in 75cm^2flasks in D-MEM supplemented with 10% FCS and 500 μg/ml G418. Cells were trypsinized and split 1:3 into 96 well flat-bottom tissue culture treated plates. Cells were stimulated at confluence (day 2-4). cAMP Response: Compounds serially diluted in 100% DMSO were further diluted 1:200 (2.5 μl compound dilution+500 μl media) in D-MEM containing 10% FBS and 0.1 mM IBMX. For unstimulated cells, 2.5 μl of DMSO was added to 500 μl of media. For NDP-αMSH stimulated cells, 2.5 μl of 20 μM NDP-αMSH in 100% DMSO was added to 500 μl of media (final conc. 100 nM). Final concentration of DMSO in all wells was 0.5%. Note: Each sample was run in duplicate on separate plates Culture medium was removed from confluent 96 well culture plates and replaced with 200 μl of above dilutions into the appropriate wells . The plates were incubated for 1 hr at RT. […] [125I]cAMP binding to the SPA beads was determined by counting each plate for 2 minutes on a Packard TopCount™. […]

Another assay has as its target T2, MC-1 receptor (Homo sapiens, UniProt Q01726).
T2 construct: expressed in transfected cells; host or cells: 293 cells
Kind of assay: Agonist assay: cAMP response in 293 cells transfected with MC-1 receptor (Biotrak-cAMP SPA). The format is cell-based. The following applies: MC1-R versus MC4-R agonist activity, transfected 293 cells.

Usually pEC50 stands for the EC50 on a negative log10 scale, so that one unit is a factor of ten.

pEC50: −log10 of the molar value. Non-standard residues stand in square brackets, D forms with d. Residues, ends and D or L forms follow the SMILES beside them. *: point of attachment. Butyryl = CCCC(=O)*

T2 sequence (Q01726 whole entry): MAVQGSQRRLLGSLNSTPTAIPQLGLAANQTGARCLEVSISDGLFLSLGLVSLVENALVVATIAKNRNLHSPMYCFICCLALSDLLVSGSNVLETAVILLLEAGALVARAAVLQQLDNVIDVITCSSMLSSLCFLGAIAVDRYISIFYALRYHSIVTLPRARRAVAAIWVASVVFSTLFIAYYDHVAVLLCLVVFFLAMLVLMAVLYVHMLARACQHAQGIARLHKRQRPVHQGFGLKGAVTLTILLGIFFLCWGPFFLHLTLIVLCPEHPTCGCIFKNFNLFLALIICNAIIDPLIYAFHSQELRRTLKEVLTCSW
T1 sequence (P32245 whole entry): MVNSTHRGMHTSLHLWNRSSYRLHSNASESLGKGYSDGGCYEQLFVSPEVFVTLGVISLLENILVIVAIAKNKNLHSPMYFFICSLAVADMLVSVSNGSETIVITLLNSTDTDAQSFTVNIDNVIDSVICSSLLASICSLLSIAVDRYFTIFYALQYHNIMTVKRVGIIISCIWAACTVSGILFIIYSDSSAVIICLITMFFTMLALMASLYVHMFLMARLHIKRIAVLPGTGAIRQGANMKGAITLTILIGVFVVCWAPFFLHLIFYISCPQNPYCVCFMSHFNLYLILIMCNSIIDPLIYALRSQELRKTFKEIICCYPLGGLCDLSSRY
Description for MC-1 receptor: Culture medium was removed from confluent 96 well culture plates and replaced with 200 μl of above dilutions into the appropriate wells . The plates were incubated for 1 hr at RT. The media was removed, and the plates were washed 1× with 200^μl well of PBS. CAMP was extracted by the addition of 60 μl 70% ethanol (stored in the refrigerator). […]
cAMP Assay: The extracted samples and all reagents included in the kit were brought to room temperature. […] [125I]cAMP binding to the SPA beads was determined by counting each plate for 2 minutes on a Packard TopCount™. […]

For the compound `CCCCC(=O)NC1(C(=O)N[C@H](Cc2ccccc2)C(=O)N[C@@H](CCCNC(=N)N)C(=O)N[C@@H](Cc2c[nH]c3ccccc23)C(=O)NCC(N)=O)CC=C(c2ccccc2)CC1` (single isomer, unassigned) [Penta-Ape-(D)Phe-Arg-Trp-Gly-NH2], the negative-log EC50 (pEC50) on MC-4 receptor is above 6.30.

As for `CCCC(=O)N[C@@H](Cc1c[nH]cn1)C(=O)N[C@H](Cc1ccccc1)C(=O)N[C@@H](CCCNC(=N)N)C(=O)N[C@@H](Cc1c[nH]c2ccccc12)C(=O)NCC(N)=O` [Example 30, Bu-His-(D)Phe-Arg-Trp-Gly-NH2] (Butyryl-H[dF]RWG-NH2), at MC-1 receptor, the “MC1-R agonist activity compared with MC4-R agonist activity” value is on record as “greater MC1-R agonist activity than MC4-R agonist activity”.

The values are drawn from patent publication US6600015B2, “Selective linear peptides with melanocortin-4 receptor (MC4-R) agonist activity” (Hoffmann-La Roche Inc., priority 2000, dated 2003).
